Reference: US11306064B2, “Benzothia(di)azepine compounds and their use as bile acid modulators” (Albireo AB, priority 2018, dated 2022)

Assays:
Format in all cases: cell-based
[1] = tested on: HepaRG cells; test: HepaRG-based assay: 3H-taurocholic acid uptake in differentiated HepaRG cells; conditions: Homo sapiens, HepaRG, 0.3 μM 3H-taurocholic acid and 7.5 μM cold taurocholic acid, 30 minutes
Experimental: HepaRG-Based Assay Protocol
A cryopreserved vial of differentiated HepaRG cells (Biopredic International HPR116080) was thawed in HepaRG Thawing/Plating/General Purpose Medium (Biopredic International ADD670C) supplemented with 200 mM Glutamax (Gibco 35050061) following the protocol provided by Biopredic International. 70,000 cells per well were seeded in 96-wells plate (Corning CLS3809) in 100 μL of HepaRG Thawing/Plating/General Purpose Medium supplemented with 200 mM Glutamax and incubated at 37° C. in 5% CO2 for 24 hours. Post incubation, the seeding media was replaced by HepaRG Maintenance/Metabolism Medium (Biopredic International ADD620C) and incubated for 6 days, with fresh HepaRG Maintenance/Metabolism Medium replenishment every 48 hours. After 7 days incubation post seeding, incubation media was decanted from the wells and cells were washed two times with 250 μL of William's E Basal Media (Gibco 12551032). After decanting William's E Basal Media each time, plates were tapped against paper towel to ensure maximum removal of residual media.
Incubation mix was prepared by adding test inhibitor dilutions (3-fold serial dilution in DMSO (Sigma D2650)) in William's E media (basal) containing 0.3 μM 3H-taurocholic acid (ARC ART-1368) and 7.5 μM cold taurocholic acid (Sigma T4009) (maintaining 0.2% final DMSO concentration). 50 μl of incubation mix containing test inhibitors was then added to the wells (in duplicate) and the plates were incubated for 30 minutes in 5% CO2 incubator at 37° C. After incubation, the reaction was stopped by keeping the plates on ice water mix for 2-3 minutes and then the incubation mix was aspirated completely from the wells. The wells were washed two times with 250 μL of chilled unlabelled 1 mM taurocholic acid dissolved in HEPES (Gibco 15630080)-buffered (10 mM) HBSS (Gibco 14175079) (pH 7.4). The plates were tapped against a paper towel after every wash to ensure maximum removal of blocking buffer.
100 μL of MicroScint-20 (PerkinElmer 6013621) was added to the wells and kept overnight at room temperature before reading the plates in TopCount NXT™ Microplate Scintillation and Luminescence Counter from PerkinElmer under 3H Test protocol (set at 120 seconds reading time per well, with normal plate orientation).
Preparation of Test Compound Dilutions
All test compounds were provided in powder form at room temperature. 10 mM DMSO stocks of the test compounds were prepared, aliquoted and stored at −20° C. From the 10 mM DMSO stock of the compounds, a 3-fold serial dilution in DMSO was prepared to get a total of 10 dilutions of the test compounds. 0.5 μL of this dilution in DMSO was added to 250 μL of FBS-free basal media containing 3H-taurocholic acid and cold taurocholic acid to prepare the incubation mixture.

[2] = biological target: T1, Human ASBT (Homo sapiens, UniProt Q12908); test: ASBT (h/m) assay: 3H-taurocholic acid uptake in human ASBT-overexpressing cells; conditions: 0.25 μM 3H-taurocholic acid and 5 μM cold taurocholic acid, 20 minutes, read-out: hASBT IC50
T1 construct: expressed in transfected cells; kept under Puromycin selection
T1 sequence (Q12908 1-348): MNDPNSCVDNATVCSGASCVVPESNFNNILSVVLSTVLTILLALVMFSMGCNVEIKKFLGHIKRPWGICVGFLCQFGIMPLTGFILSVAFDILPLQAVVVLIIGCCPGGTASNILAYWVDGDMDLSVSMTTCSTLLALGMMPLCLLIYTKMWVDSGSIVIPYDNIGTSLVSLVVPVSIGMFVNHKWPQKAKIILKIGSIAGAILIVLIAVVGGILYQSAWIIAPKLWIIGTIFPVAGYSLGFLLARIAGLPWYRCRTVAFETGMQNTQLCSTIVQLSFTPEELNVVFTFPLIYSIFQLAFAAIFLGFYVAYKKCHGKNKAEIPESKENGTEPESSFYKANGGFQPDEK
How it was run: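 ASBT-overexpressing cells, seeded 48 h earlier, took up 0.25 µM 3H-taurocholic acid plus 5 µM cold taurocholate for 20 min at 37 °C with inhibitor (10-point 3-fold series, top 10 µM, 0.2% DMSO). Ice stop, washes with cold 1 mM taurocholate in HEPES-HBSS pH 7.4, scintillation counting.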

[3] = biological target: T2, Human LBAT (Homo sapiens, UniProt Q14973); test: LBAT (h/m) assay: 3H-taurocholic acid uptake in human LBAT-overexpressing cells; conditions: 0.3 μM 3H-taurocholic acid and 7.5 μM cold taurocholic acid, 20 minutes, read-out: hLBAT IC50
T2 construct: expressed in transfected cells; kept under Geneticin selection
T2 sequence (Q14973 1-349): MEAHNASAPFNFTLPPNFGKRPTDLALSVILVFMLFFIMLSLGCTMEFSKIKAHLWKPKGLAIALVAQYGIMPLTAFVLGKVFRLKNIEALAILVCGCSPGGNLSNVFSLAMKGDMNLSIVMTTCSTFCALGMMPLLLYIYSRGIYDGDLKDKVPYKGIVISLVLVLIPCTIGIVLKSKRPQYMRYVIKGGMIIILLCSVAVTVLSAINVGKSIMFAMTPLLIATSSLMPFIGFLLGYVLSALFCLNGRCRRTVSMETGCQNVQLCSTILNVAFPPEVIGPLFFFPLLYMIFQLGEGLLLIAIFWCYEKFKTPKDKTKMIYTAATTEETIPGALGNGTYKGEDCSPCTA
How it was run: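 LBAT-overexpressing cells, serum-free MEM-alpha, 20 min at 37° C with inhibitor (3-fold, 10-point) plus 0.3 μM 3H-taurocholic acid and cold taurocholic acid (7.5 μM human; 25 μM mouse), 0.2% DMSO. Stopped on ice, washed with 1 mM unlabelled taurocholate; uptake by scintillation counting.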

IC50 [1] [nM]	IC50 [2] [nM]	IC50 [3] [nM]	Structure (SMILES)
265	27	20	CCCC[C@@]1(CC)CN(c2ccccc2)c2cc(Br)c(O/C=C(\F)C(=O)O)cc2S(=O)(=O)C1 (single isomer, unassigned) [Example 65]
5330	24	297	CCCC[C@@]1(CC)CN(c2ccccc2)c2cc(SC)c(O/C=C/C(=O)O)cc2S(=O)(=O)N1 (single isomer, unassigned) [Example 77]
1110	7	71	CCCC[C@@]1(CC)CN(c2ccccc2)c2cc(SC)c(O/C=C(\F)C(=O)O)cc2S(=O)(=O)N1 (single isomer, unassigned) [Example 85]
527	88	31	CCCC[C@]1(CC)CN(c2ccccc2)c2cc(SC)c(O/C=C(\F)C(=O)O)cc2S(=O)(=O)N1 (single isomer, unassigned) [Example 86]
1450	631	49	CCCC[C@]1(CC)CN(c2ccccc2)c2cc(SC)c(O/C=C(\F)C(=O)O)cc2S(=O)(=O)N1C (single isomer, unassigned) [Example 100]
> 2220	6.5	68	CCCC[C@@]1(CC)CN(c2ccccc2)c2cc(N(C)C)c(O/C=C(\F)C(=O)O)cc2S(=O)(=O)C1 (single isomer, unassigned) [Example 109]
> 6670	354	1400	CCCCC1(CCCC)CN(c2ccc(N)cc2)c2cc(SC)c(O/C=C/C(=O)O)cc2S(=O)(=O)C1 [Example 2, (E)-3-((5-(4-aminophenyl)-3,3-dibutyl-7-(methylthio)-1,1-dioxido-2,3,4,5-tetrahydro-1,5-benzothiazepin-8-yl)oxy)acrylic Acid]
3190	217	749	CCCCC1(CCCC)CN(c2ccccc2)c2cc(C3CC3)c(O/C=C/C(=O)O)cc2S(=O)(=O)C1 [Example 7, (E)-3-((3,3-dibutyl-7-cyclopropyl-1,1-dioxido-5-phenyl-2,3,4,5-tetrahydro-1,5-benzothiazepin-8-yl)oxy)acrylic Acid]
3080	1200	1090	CCCCC1(CCCC)CN(c2ccc(NS(=O)(=O)C3CC3)cc2)c2cc(SC)c(O/C=C/C(=O)O)cc2S(=O)(=O)C1 [Example 9, (E)-3-((3,3-dibutyl-5-(4-(cyclopropanesulfonamido)phenyl)-7-(methylthio)-1,1-dioxido-2,3,4,5-tetrahydro-1,5-benzothiazepin-8-yl)oxy)acrylic Acid]
4700	1410	3980	CCCCC1(CCCC)CN(c2ccc(NS(C)(=O)=O)cc2)c2cc(SC)c(O/C=C/C(=O)O)cc2S(=O)(=O)C1 [Example 10, (E)-3-((3,3-dibutyl-5-(4-(methylsulfonamido)phenyl)-7-(methylthio)-1,1-dioxido-2,3,4,5-tetrahydro-1,5-benzothiazepin-8-yl)oxy)acrylic Acid]
2610	482	393	CCCCC1(CCCC)CN(c2ccccc2)c2cc(CC)c(O/C=C/C(=O)O)cc2S(=O)(=O)C1 [Example 12, (E)-3-((3,3-dibutyl-7-ethyl-1,1-dioxido-5-phenyl-2,3,4,5-tetrahydro-1,5-benzothiazepin-8-yl)oxy)acrylic Acid]
4460	144	991	CCCCC1(CC)CN(c2ccccc2)c2cc(OC)c(O/C=C/C(=O)O)cc2S(=O)(=O)C1 (stereo not drawn) [Example 13, (E)-3-((3-butyl-3-ethyl-7-methoxy-1,1-dioxido-5-phenyl-2,3,4,5-tetrahydro-1,5-benzothiazepin-8-yl)oxy)acrylic Acid]
5160	304	1430	CCCCC1(CCCC)CN(c2ccccc2)c2cc(OC)c(O/C=C/C(=O)O)cc2S(=O)(=O)C1 [Example 14, (E)-3-((3,3-dibutyl-7-methoxy-1,1-dioxido-5-phenyl-2,3,4,5-tetrahydro-1,5-benzothiazepin-8-yl)oxy)acrylic Acid]
2250	253	532	CCCCC1(CCCC)CN(c2ccc(Br)cc2)c2cc(SC)c(O/C=C/C(=O)O)cc2S(=O)(=O)C1 [Example 15, (E)-3-((5-(4-bromophenyl)-3,3-dibutyl-7-(methylthio)-1,1-dioxido-2,3,4,5-tetrahydro-1,5-benzothiazepin-8-yl)oxy)acrylic Acid]
2890	128	783	CCCCC1(CCCC)CN(c2ccc(OC)cc2)c2cc(SC)c(O/C=C/C(=O)O)cc2S(=O)(=O)C1 [Example 19, (E)-3-((3,3-dibutyl-5-(4-methoxyphenyl)-7-(methylthio)-1,1-dioxido-2,3,4,5-tetrahydro-1,5-benzothiazepin-8-yl)oxy)acrylic Acid]
5230	929	4150	CCCCC1(CC)CN(c2ccccc2)c2ccc(O/C=C/C(=O)O)cc2S(=O)(=O)C1 (stereo not drawn) [Example 21, (E)-3-((3-butyl-3-ethyl-1,1-dioxido-5-phenyl-2,3,4,5-tetrahydro-1,5-benzothiazepin-8-yl)oxy)acrylic Acid]
2280	4670	225	CCCCC1(CCCC)CN(c2ccc(NC(=O)OC)cc2)c2cc(SC)c(O/C=C/C(=O)O)cc2S(=O)(=O)C1 [Example 24, (E)-3-((3,3-dibutyl-5-(4-((methoxycarbonyl)amino)phenyl)-7-(methylthio)-1,1-dioxido-2,3,4,5-tetrahydro-1,5-benzothiazepin-8-yl)oxy)acrylic Acid]
3310	370	351	CCCCC1(CCCC)CN(c2ccc(N(C)C)cc2)c2cc(SC)c(O/C=C/C(=O)O)cc2S(=O)(=O)C1 [Example 25, (E)-3-((3,3-dibutyl-5-(4-(dimethylamino)phenyl)-7-(methylthio)-1,1-dioxido-2,3,4,5-tetrahydro-1,5-benzothiazepin-8-yl)oxy)acrylic Acid]

Structure (SMILES)	IC50 [1] [nM]	IC50 [2] [nM]	IC50 [3] [nM]
CCCCC1(CCCC)CN(c2ccc(NC(=O)OC(C)(C)C)cc2)c2cc(SC)c(O/C=C/C(=O)O)cc2S(=O)(=O)C1 [Example 3, (E)-3-((5-(4-((tert-butoxycarbonyl)amino)phenyl)-3,3-dibutyl-7-(methylthio)-1,1-dioxido-2,3,4,5-tetrahydro-1,5-benzothiazepin-8-yl)oxy)acrylic Acid]	885	> 10000	177
